# Results taken from ChEMBL document CHEMBL1201862, “PubChem BioAssay data set” (2004).
#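 Cells were grown in 96-well plates and exposed to each compound for 48 hours at five concentrations; endpoints were interpolated linearly between bracketing concentrations, or set to the highest concentration if not reached. GI50: concentration for 50% inhibition of growth.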 Activity calls are given as the source filed them. No stated cut-off is given here; in the data, active = GI50 up to about 1.1 µM and inactive = higher.
# Experiments:
# Assay in all cases: NCI anticancer screen, dose series, 48 h
# [1] = tested on: SR
# [2] = tested on: Malme-3M
# [3] = tested on: A549
# [4] = tested on: NCI-H23
# [5] = tested on: A498
# [6] = tested on: SK-MEL-5
# [7] = tested on: BT-549
# [8] = tested on: OVCAR-4
# [9] = tested on: SF-539
# [10] = tested on: OVCAR-5
# [11] = tested on: Hs-578T
# [12] = tested on: 786-0
# [13] = tested on: HL-60
# [14] = tested on: SK-OV-3
# [15] = tested on: MOLT-4
# [16] = tested on: TK-10
# [17] = tested on: DU-145
# [18] = tested on: SK-MEL-2
# [19] = tested on: CAKI-1
# [20] = tested on: SF-268
Structure (SMILES),GI50 [1],GI50 [2],GI50 [3],GI50 [4],GI50 [5],GI50 [6],GI50 [7],GI50 [8],GI50 [9],GI50 [10],GI50 [11],GI50 [12],GI50 [13],GI50 [14],GI50 [15],GI50 [16],GI50 [17],GI50 [18],GI50 [19],GI50 [20]
C#CCn1c(=O)ccn(/C(=C/C(=O)OCC)C(=O)OCC)c1=O,3.45 µM (inactive),1.96 µM (inactive),17.2 µM (inactive),11.9 µM (inactive),15.1 µM (inactive),14.5 µM (inactive),10.5 µM (inactive),4.62 µM (inactive),1.48 µM (inactive),7.13 µM (inactive),18.7 µM (inactive),3.41 µM (inactive),3.44 µM (inactive),35.2 µM (inactive),3.43 µM (inactive),1.77 µM (inactive),13.8 µM (inactive),15.2 µM (inactive),1.58 µM (inactive),13.1 µM (inactive)
Clc1cc(-c2ccccc2)nc(Nc2nc3ccccc3[nH]2)n1,2.84 µM (inactive),28.2 µM (inactive),> 100 µM (inactive),18.2 µM (inactive),33.3 µM (inactive),38.5 µM (inactive),22.9 µM (inactive),15.9 µM (inactive),> 100 µM (inactive),> 100 µM (inactive),27.3 µM (inactive),16.5 µM (inactive),0.832 µM (active),64.7 µM (inactive),22.3 µM (inactive),> 100 µM (inactive),> 100 µM (inactive),> 10 µM (inactive),2.14 µM (inactive),23.6 µM (inactive)
O=C1c2c(ccc3c2CCCC3)CC12Cc1ccccc1C2,4.57 µM (inactive),5.48 µM (inactive),13.1 µM (inactive),10.3 µM (inactive),11.1 µM (inactive),6.19 µM (inactive),81.8 µM (inactive),40.8 µM (inactive),6.31 µM (inactive),21.8 µM (inactive),22.5 µM (inactive),14.2 µM (inactive),11.2 µM (inactive),30.6 µM (inactive),4.03 µM (inactive),28 µM (inactive),22.3 µM (inactive),17.4 µM (inactive),7.62 µM (inactive),43.2 µM (inactive)
COC(=O)c1csc([C@@H](OC(=O)[C@H](C)[C@H](CCCC(C)(Cl)Cl)OC(=O)c2csc([C@H](O)CO)n2)C(C)C)n1,13.7 µM (inactive),17.3 µM (inactive),17.9 µM (inactive),16.4 µM (inactive),18.3 µM (inactive),17.9 µM (inactive),17.1 µM (inactive),10 µM (inactive),2.92 µM (inactive),15.5 µM (inactive),2.11 µM (inactive),14 µM (inactive),17.9 µM (inactive),16.2 µM (inactive),16.3 µM (inactive),12.4 µM (inactive),12.3 µM (inactive),15.3 µM (inactive),17.7 µM (inactive),17.7 µM (inactive)
COc1cc(C2c3cc4c(cc3[C@@H](Nc3ccc(C#N)cc3)C3COC(=O)[C@H]23)OCO4)cc(OC)c1O (stereo not given in full),0.261 µM (active),1.29 µM (inactive),0.166 µM (active),0.622 µM (active),2.01 µM (inactive),0.661 µM (active),7.74 µM (inactive),3.43 µM (inactive),1.14 µM (inactive),5.64 µM (inactive),5.09 µM (inactive),0.724 µM (active),0.143 µM (active),1.63 µM (inactive),0.274 µM (active),7.82 µM (inactive),0.273 µM (active),14.6 µM (inactive),0.436 µM (active),2.43 µM (inactive)
Nc1c2c(nc3ccccc13)-c1ccccc1NCCC2,17.9 µM (inactive),18 µM (inactive),47.4 µM (inactive),47.3 µM (inactive),16.6 µM (inactive),15.1 µM (inactive),50.5 µM (inactive),47.3 µM (inactive),21 µM (inactive),35.6 µM (inactive),56.5 µM (inactive),16.7 µM (inactive),18.4 µM (inactive),64.6 µM (inactive),24.6 µM (inactive),19 µM (inactive),59.7 µM (inactive),18 µM (inactive),30.8 µM (inactive),45.1 µM (inactive)
NS(=O)(=O)c1ccc(/N=N/c2cccnc2O)cc1,> 100 µM (inactive),> 100 µM (inactive),> 100 µM (inactive),> 100 µM (inactive),> 100 µM (inactive),> 100 µM (inactive),> 100 µM (inactive),> 100 µM (inactive),> 100 µM (inactive),> 100 µM (inactive),> 100 µM (inactive),> 100 µM (inactive),> 100 µM (inactive),> 100 µM (inactive),> 100 µM (inactive),> 100 µM (inactive),> 100 µM (inactive),> 100 µM (inactive),> 100 µM (inactive),> 100 µM (inactive)
